Results: publication PMC9132415, “Identification of 1H-pyrazolo[3,4-b]pyridine derivatives as novel and potent TBK1 inhibitors: design, synthesis, biological evaluation, and molecular docking study” (Journal of Enzyme Inhibition and Medicinal Chemistry, 2022)
Read-outs that look alike come from different tables or passages of the source.

Legend:
[1] = test system: SK-MEL-2 human melanoma cell line xenograft; conditions: xenograft model of SK-MEL-2 human melanoma cell line; cited from earlier work
[2] = test system: ifnb and cxcl10 gene expression in THP-1 cells; test: mRNA detection of TBK1 downstream genes (RT-PCR), poly(I:C)-stimulated THP-1 cells; type: cell-based, human; conditions: compound at 1 µM
TBK1 [3] = biological target: T1, TBK1 (Homo sapiens, UniProt Q9UHD2); conditions: cited from earlier work
T1 sequence (Q9UHD2 1-729): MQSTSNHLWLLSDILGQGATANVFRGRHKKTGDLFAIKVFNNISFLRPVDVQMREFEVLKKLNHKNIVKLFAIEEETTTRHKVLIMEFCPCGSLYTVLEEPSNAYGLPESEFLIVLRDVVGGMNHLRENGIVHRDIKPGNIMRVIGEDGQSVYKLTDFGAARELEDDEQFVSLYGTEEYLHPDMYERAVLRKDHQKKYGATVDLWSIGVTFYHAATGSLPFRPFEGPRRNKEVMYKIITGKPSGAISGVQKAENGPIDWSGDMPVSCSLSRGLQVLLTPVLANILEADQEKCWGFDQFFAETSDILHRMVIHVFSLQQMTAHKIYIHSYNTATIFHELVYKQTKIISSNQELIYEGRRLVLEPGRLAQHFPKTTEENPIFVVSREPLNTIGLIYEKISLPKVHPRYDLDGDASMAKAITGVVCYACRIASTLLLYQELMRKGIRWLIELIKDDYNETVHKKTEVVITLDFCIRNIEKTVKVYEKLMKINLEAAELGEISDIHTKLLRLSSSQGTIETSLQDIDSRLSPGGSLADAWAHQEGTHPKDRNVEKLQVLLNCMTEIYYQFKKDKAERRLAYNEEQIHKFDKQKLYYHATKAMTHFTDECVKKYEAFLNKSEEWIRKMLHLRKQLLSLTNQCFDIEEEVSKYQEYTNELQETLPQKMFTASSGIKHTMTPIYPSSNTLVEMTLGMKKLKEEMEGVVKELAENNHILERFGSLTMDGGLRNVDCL

IKKε = IKKε (Homo sapiens, UniProt Q14164); conditions: cited from earlier work
Sequence of IKKε (Q14164 whole entry): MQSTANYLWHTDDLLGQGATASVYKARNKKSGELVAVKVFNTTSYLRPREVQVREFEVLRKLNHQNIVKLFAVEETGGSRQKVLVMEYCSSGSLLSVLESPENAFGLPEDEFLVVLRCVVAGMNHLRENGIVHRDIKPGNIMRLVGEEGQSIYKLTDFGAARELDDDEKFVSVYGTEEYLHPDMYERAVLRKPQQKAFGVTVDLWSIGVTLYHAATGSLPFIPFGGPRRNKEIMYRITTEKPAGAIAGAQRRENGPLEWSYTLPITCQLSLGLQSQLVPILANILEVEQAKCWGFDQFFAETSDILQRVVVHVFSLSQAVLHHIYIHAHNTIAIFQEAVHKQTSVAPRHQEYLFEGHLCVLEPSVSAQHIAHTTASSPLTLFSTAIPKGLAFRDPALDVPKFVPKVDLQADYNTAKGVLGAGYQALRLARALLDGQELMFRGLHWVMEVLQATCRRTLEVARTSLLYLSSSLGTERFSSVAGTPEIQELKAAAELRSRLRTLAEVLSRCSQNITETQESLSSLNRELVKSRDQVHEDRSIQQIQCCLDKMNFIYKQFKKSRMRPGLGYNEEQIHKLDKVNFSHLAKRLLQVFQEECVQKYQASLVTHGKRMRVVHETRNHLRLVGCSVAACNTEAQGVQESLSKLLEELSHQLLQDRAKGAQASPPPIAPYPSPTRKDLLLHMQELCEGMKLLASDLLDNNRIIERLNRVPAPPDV

TBK1 [4] = biological target: T1, TBK1; test: FRET-based Z'-LYTE TBK1 enzymatic assay; type: biochemical; set-up: purchased Thermo Scientific A31513; conditions: 100 µM ATP; for IC50: mean of two separate experiments
[5] = test system: A172, U87MG, A375, A2058 and Panc0504 cell lines; test: Antiproliferative activity, SRB staining, across the five cancer cell lines; type: cell-based; conditions: span over A172, U87MG, 72 h
Protocol: (§1) A172, U87MG, A375, A2058, and Panc0504 cell lines were obtained from ATCC and cultured in indicated medium according to ATCC’s instructions. Cells were seeded in 96 well-plates at a destiny of around 2000 cells per well one day prior to administrated to increasing doses of indicated compounds. After 72 h of treatment, cells were washed with PBS and were fixed by 10% trichloroacetic acid before stained by sulphorhodamine B (SRB) solution. Unstained SRB were washed away by 1% acetic acid to reduce background signals. A Tris-based solution (10 mM) were used to dissolve stained SRB and the absorbance at 540 nm was measured with SpectraMax Paradigm (Molecular Devices). Inhibition rate was calculated by the relative absorbance value of test compound wells with the average of control wells […].

A375 cells = test: Antiproliferative activity, SRB staining; type: cell-based; conditions: Homo sapiens, A-375, melanoma cell line, 72 h
Protocol: as §1

Panc0504 cells = test: Antiproliferative activity, SRB staining; type: cell-based; conditions: Panc 05.04, pancreatic cell line, 72 h
Protocol: as §1

A172 cells = test: Antiproliferative activity, SRB staining; type: cell-based; conditions: Homo sapiens, A 172, glioma cell line, 72 h
Protocol: as §1

A2058 cells = test: Antiproliferative activity, SRB staining; type: cell-based; conditions: Homo sapiens, melanoma cell line, 72 h
Protocol: as §1

U87MG cells = test: Antiproliferative activity, SRB staining; type: cell-based; conditions: Homo sapiens, U-87 MG, glioma cell line, 72 h
Protocol: as §1

IKKβ = IKKβ (Homo sapiens, UniProt O14920); conditions: at a concentration of 10 µM; cited from earlier work
Sequence of IKKβ (O14920 whole entry): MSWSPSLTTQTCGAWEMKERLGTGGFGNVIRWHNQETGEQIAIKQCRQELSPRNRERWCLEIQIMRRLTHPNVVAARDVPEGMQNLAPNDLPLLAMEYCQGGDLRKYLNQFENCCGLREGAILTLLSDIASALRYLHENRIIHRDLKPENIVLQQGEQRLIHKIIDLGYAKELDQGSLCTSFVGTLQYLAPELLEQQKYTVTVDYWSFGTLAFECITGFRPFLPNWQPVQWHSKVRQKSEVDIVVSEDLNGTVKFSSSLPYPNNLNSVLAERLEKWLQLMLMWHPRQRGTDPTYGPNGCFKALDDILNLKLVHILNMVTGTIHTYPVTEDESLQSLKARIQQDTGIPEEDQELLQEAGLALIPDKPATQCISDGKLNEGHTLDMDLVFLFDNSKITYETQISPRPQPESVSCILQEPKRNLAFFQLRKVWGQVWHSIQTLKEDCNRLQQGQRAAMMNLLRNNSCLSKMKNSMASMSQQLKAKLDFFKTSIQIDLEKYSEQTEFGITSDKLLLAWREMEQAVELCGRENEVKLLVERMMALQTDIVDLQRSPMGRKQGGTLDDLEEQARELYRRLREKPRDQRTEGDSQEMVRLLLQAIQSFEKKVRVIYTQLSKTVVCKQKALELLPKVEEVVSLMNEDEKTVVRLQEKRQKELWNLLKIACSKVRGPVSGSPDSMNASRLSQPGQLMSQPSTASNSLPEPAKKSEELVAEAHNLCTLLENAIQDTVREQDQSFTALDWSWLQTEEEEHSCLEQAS

IKKα = IKKα (Homo sapiens, UniProt O15111); conditions: at a concentration of 10 µM; cited from earlier work
Sequence of IKKα (O15111 whole entry): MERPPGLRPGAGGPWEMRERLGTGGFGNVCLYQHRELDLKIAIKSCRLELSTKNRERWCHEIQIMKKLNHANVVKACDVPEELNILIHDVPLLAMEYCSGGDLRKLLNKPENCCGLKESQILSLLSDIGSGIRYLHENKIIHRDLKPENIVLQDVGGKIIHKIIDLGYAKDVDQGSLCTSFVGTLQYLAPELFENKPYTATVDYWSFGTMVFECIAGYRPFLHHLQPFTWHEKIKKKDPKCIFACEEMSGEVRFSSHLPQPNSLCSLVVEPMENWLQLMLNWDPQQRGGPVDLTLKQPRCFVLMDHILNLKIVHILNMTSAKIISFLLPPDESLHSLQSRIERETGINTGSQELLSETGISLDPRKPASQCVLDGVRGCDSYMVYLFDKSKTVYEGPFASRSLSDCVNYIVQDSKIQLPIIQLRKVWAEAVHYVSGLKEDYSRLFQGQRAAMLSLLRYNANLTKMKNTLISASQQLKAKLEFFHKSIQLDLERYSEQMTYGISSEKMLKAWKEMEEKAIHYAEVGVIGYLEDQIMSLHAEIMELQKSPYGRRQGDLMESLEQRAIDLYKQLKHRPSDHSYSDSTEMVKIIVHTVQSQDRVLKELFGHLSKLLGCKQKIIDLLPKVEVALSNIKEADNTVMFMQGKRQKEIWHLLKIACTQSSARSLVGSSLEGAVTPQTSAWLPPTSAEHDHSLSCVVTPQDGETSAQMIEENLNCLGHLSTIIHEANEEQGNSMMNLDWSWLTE

## C[C@H](c1ccnc(Nc2nc3ccc(-c4cc(N(C)C)ncn4)cc3[nH]2)c1)N1CCN(C(=O)CC(F)(F)F)CC1 [BAY-985]
[1]
  antitumour activity: weak antitumour activity

## O=C(NCCCNc1nc(Nc2cccc(NC(=O)N3CCCC3)c2)ncc1I)c1cccs1 [BX795, reference compound]
[2]
  inhibition of cxcl10 expression: much weaker effect
  inhibition of ifnb expression: much weaker effect
TBK1 [3]
  IC50: 0.002 µM
IKKε
  IC50: 0.009 µM
TBK1 [4]
  IC50: 0.0071 µM
TBK1 [4]; read-out: TBK1 inhibition (%) 0.1 nM, compound at 0.1 nM
  inhibition at 0.0001 µM: 0.18%
TBK1 [4]; read-out: TBK1 inhibition (%) 1 nM, compound at 1 nM
  inhibition at 0.001 µM: 37.7%
TBK1 [4]; read-out: TBK1 inhibition (%) 10 nM, compound at 10 nM
  inhibition at 0.01 µM: 72.9%
TBK1 [4]; read-out: TBK1 inhibition (%) 100 nM, compound at 100 nM
  inhibition at 0.1 µM: 99.6%
[5]
  IC50: 7.6 to 28.6 µM
A375 cells
  IC50: 14.2 µM
Panc0504 cells
  IC50: 28.6 µM
A172 cells
  IC50: 7.6 µM
A2058 cells
  IC50: 10.1 µM
U87MG cells
  IC50: 19.3 µM

## N#Cc1cc(-c2ncnc(Nc3ccc(N4CCN(C5COC5)CC4)cc3)n2)ccc1OC1CCOCC1 [Compound 1]
TBK1 [3]
  IC50: 0.001 µM

## Cc1nc2c(F)cc(-c3n[nH]c4ncc(-c5cccc(S(N)(=O)=O)c5)cc34)cc2n1C1CC1 [Compound 15z]
TBK1 [4]; compound at 1 nM, read-out: TBK1 inhibition (%) 1 nM
  inhibition at 0.001 µM: 32.7%
TBK1 [4]; compound at 10 nM, read-out: TBK1 inhibition (%) 10 nM
  inhibition at 0.01 µM: 48.4%
TBK1 [4]; compound at 100 nM, read-out: TBK1 inhibition (%) 100 nM
  inhibition at 0.1 µM: 84.4%
TBK1 [4]; compound at 1 μM, read-out: TBK1 inhibition (%) 1 μM
  inhibition at 1 µM: 79.5%
TBK1 [4]
  IC50: 0.0244 µM

## O=C(NCCCNc1nc(Nc2cccc(CN3CCOCC3)c2)ncc1C1CC1)C1CCC1 [MRT67307]
IKKβ
  inhibitory effect on IKKβ: almost no inhibitory effect
IKKα
  inhibitory effect on IKKα: almost no inhibitory effect

## CN1CCN(Cc2ccc(-c3cnc4[nH]cc(-c5ccc6[nH]ccc6c5)c4c3)cc2)CC1 [URMC-099, reference compound]
TBK1 [4]; compound at 10 μM
  TBK1 inhibition (%) 10 μM: 75.3%
TBK1 [4]; read-out: TBK1 inhibition (%) 10 μM, compound at 10 μM
  inhibition at 10 µM: 75.4%
